This is an account of results in patent US6693108B2, “Inhibitors of c-JUN N terminal kinases (JNK) and other protein kinases” (Vertex Pharmaceuticals Incorporated, priority 1999, dated 2004).

For this assay, the target named is T1, activated JNK3 (Homo sapiens, UniProt P53779).
T1 construct: One such construct encodes amino acid residues Ser40-Glu402 of JNK3α1 and is preceded by Met and Gly residues; Met-Gly (initiation Met plus Gly added to create the NcoI site) (N); made in house; host or cells: E. coli BL21 (DE3)
T1 sequence (P53779 40-402): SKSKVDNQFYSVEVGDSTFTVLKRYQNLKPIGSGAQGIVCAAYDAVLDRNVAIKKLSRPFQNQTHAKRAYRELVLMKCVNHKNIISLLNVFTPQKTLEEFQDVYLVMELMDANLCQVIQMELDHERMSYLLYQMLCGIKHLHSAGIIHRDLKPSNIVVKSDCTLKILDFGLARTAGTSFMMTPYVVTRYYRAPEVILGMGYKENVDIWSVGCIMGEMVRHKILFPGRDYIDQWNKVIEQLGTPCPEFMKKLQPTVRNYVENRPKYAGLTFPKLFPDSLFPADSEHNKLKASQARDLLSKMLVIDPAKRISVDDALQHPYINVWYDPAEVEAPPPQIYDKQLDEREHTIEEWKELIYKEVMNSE
Nature of the assay: JNK3 inhibition, spectrophotometric coupled-enzyme assay. In kind it is biochemical. Further details: Activity in the JNK3 Inhibition Assay (Ki rating): scale not given here. To be noted: for Ki: read-out: Activity in the JNK3 Inhibition Assay (Ki rating); for Activity in the JNK3 Inhibition Assay (Ki rating): activated JNK3 10 nM, 10 μM ATP, 30° C., Ki from competitive inhibition model. The text has this: A BLAST search of the EST database using the published JNK3α1 cDNA as a query identified an EST clone (#632588) that contained the entire coding sequence for human JNK3α1. Polymerase chain reactions (PCR) using pfu polymerase (Strategene) were used to introduce restriction sites into the cDNA for cloning into the pET-15B expression vector at the NcoI and BamHI sites. The protein was expressed in E. coli. […] This truncation corresponds to Ser 2 of JNK1 and JNK2 proteins, and is preceded by a methionine (initiation) and a glycine residue. The glycine residue was added in order to introduce an NcoI site for cloning into the expression vector. In addition, systematic C-terminal truncations were performed by PCR to identify a construct that give rise to diffraction-quality crystals.
5 mg of JNK3 was diluted to 0.5 mg/ml in 50 mM HEPES buffer, pH 7.5, containing 100 mM NaCl, 5 mM DTT, 20 mM MgCl2 and 1 mM ATP. GST-MKK7(DD) was added at a molar ratio of 1:2.5 GST-MKK7:JNK3. After incubation for 30 minutes at 25° C., the reaction mixture was concentrated 5-fold by ultrafiltration in a Centriprep-30 (Amicon, Beverly, Mass.), diluted to 10 ml and an additional 1 mM ATP added. This procedure was repeated three times to remove ADP and replenish ATP. The final addition of ATP was 5 mM and the mixture incubated overnight at 4° C.
The activated JNK3/GST-MKK7(DD) reaction mixture was exchanged into 50 mM HEPES buffer, pH 7.5, containing 5 mM DTT and 5% glycerol (w/v) by dialysis or ultrafiltration. The reaction mixture was adjusted to 1.1 M potassium phosphate, pH 7.5, and purified by hydrophobic interaction chromatography (at 25° C.) using a Rainin Hydropore column. […] Activated JNK3 (i.e. doubly phosphorylated JNK3) was stored at −70° C. at 0.25-1 mg/ml.
Compounds were assayed for the inhibition of JNK3 by a spectrophotometric coupled-enzyme assay. In this assay, a fixed concentration of activated JNK3 (10 nM) was incubated with various concentrations of a potential inhibitor dissolved in DMSO for 10 minutes at 30° C. in a buffer containing 0.1 M HEPES buffer, pH 7.5, containing 10 mM MgCl2, 2.5 mM phosphoenolpyruvate, 200 μM NADH, 150 μg/mL pyruvate kinase, 50 μg/mL lactate dehydrogenase, and 200 μM EGF receptor peptide. […] The reaction was initiated by the addition of 10 μM ATP and the assay plate is inserted into the spectrophotometer's assay plate compartment that was maintained at 30° C. The decrease of absorbance at 340 nm was monitored as a function of time. The rate data as a function of inhibitor concentration was fitted to competitive inhibition kinetic model to determine the Ki.

The Ki is the dissociation constant of the complex between target and ligand, obtained from inhibition or displacement.

For the molecule `Cc1cc(Nc2nccc(-c3c(-c4ccccc4)noc3C)n2)ccc1C#N` [IIA-38], the Ki is under 100 nM.
For `Cc1onc(-c2ccccc2)c1-c1ccnc(N[C@H]2CC[C@H](O)CC2)n1` [IIAA-36], the inhibition constant Ki was under 100 nM.
Regarding `Cc1onc(-c2cccc(C#N)c2)c1-c1ccnc(Nc2cccc(C#N)c2)n1` [IIA-126], the inhibitory constant (Ki) lay within 100 to 1000 nM.
Still for that read-out and setting: as for `Cc1ccc(C(=O)Nc2nccc(-c3c(-c4cccc(F)c4)noc3C)n2)cc1` [IIIA-50], the figure is 100 to 1000 nM; as for `CCOC(=O)c1cccc(Nc2nccc(-c3c(-c4ccccc4)noc3C)n2)c1` [IIA-130], under 100 nM.
Still for that read-out and setting: as for `COc1cc(OC)cc(C(=O)Nc2nccc(-c3c(-c4cccc([N+](=O)[O-])c4)noc3C)n2)c1` [IIIA-37], the figure is over 1000 nM; as for `Cc1onc(-c2ccccc2)c1-c1ccnc(Nc2ccccc2)n1` [IIA-1, [4-(5-Methyl-3-phenyl-isoxazol-4-yl)-pyrimidin-2-yl]-phenyl-amine], under 100 nM.
Still for that read-out and setting: as for `COc1cc(OC)cc(C(=O)Nc2nccc(-c3c(-c4ccccc4F)noc3C)n2)c1` [IIIA-56], the figure is 100 to 1000 nM.
With `CC(=O)c1cccc(Nc2nccc(-c3c(-c4ccccc4)noc3C)n2)c1` [IIA-39], the inhibition constant (Ki) is under 100 nM.
The same measure, in the same setting: as for `Cc1onc(-c2ccccc2C(F)(F)F)c1-c1ccnc(Nc2ccccc2)n1` [IIA-112], the figure is over 1000 nM.
In the case of `COc1ccc2ccccc2c1Nc1nccc(-c2c(-c3ccccc3)noc2C)n1` [IIAA-17], the inhibition constant Ki was over 1000 nM.
The same measure, in the same setting: as for `COc1ccc2cc(Nc3nccc(-c4c(-c5ccccc5C)noc4C)n3)ccc2c1` [IIAA-19], the figure is under 100 nM.
As to `Cc1onc(-c2c(F)cccc2F)c1-c1ccnc(Nc2cccc(F)c2)n1` [IIA-94], the Ki is under 100 nM.
In the case of `Cc1onc(-c2ccccc2)c1-c1ccnc(NC2CCNCC2)n1` [IIAA-32], the Ki was in the range of 100 to 1000 nM.
For the molecule `Cc1cccc(C(=O)Nc2nccc(-c3c(-c4cccc(F)c4)noc3C)n2)c1` [IIIA-48], the Ki was 100 to 1000 nM.
Same read-out and setting: as for `COc1cccc(C(=O)Nc2nccc(-c3c(-c4ccccc4C(F)(F)F)noc3C)n2)c1` [IIIA-23], the figure is over 1000 nM.
On the same count and under the same terms, as for `Cc1onc(-c2ccccc2)c1-c1ccnc(NC(=O)c2ccccc2Cl)n1` [IIIA-4], the figure is over 1000 nM.
For `Cc1ccc(C(=O)Nc2nccc(-c3c(-c4c(F)cccc4F)noc3C)n2)cc1` [IIIA-70], the inhibition constant (Ki) was in the range of 100 to 1000 nM.
The same measure, in the same setting: for `Cc1onc(-c2ccccc2Br)c1-c1ccnc(Nc2ccccc2)n1` [IIA-79] the value was 100 to 1000 nM.
As for `CSc1cccc(Nc2nccc(-c3c(-c4ccccc4)noc3C)n2)c1` [IIA-37], the Ki is under 100 nM.
As for `Cc1onc(-c2ccccc2C(F)(F)F)c1-c1ccnc(Nc2ccc(C#N)c(F)c2)n1` [IIA-110], the inhibition constant (Ki) is over 1000 nM.
Consider `COc1ccc(Nc2nccc(-c3c(-c4ccccc4)noc3C)n2)cc1C` [IIA-72], for which the “Activity in the JNK3 Inhibition Assay (Ki rating)” value is “A/B”.
The same measure, in the same setting: for `COc1cccc(-c2noc(C)c2-c2ccnc(Nc3ccccc3)n2)c1OC` [IIA-12] the value was “B/C”.
With `Cc1onc(-c2ccccc2F)c1-c1ccnc(NC(=O)c2cccc(C#N)c2)n1` [IIIA-61], the Ki is 100 to 1000 nM.
For the molecule `Cc1onc(-c2ccccc2F)c1-c1ccnc(NC(=O)c2cccc(Cl)c2)n1` [IIIA-54], the Ki lay in the range of 100 to 1000 nM.
On the same count and under the same terms, as for `Cc1onc(-c2cccc(F)c2)c1-c1ccnc(Nc2ccccc2)n1` [IIA-66], the figure is under 100 nM; as for `CC(=O)Nc1nccc(-c2c(-c3ccc(F)cc3)noc2C)n1` [XA-2], over 1000 nM.
`COc1ccc2cc(Nc3nccc(-c4c(-c5c(F)cccc5F)noc4C)n3)ccc2c1` [IIAA-14]: the Ki is under 100 nM.
Same read-out and setting: as for `Cc1onc(-c2ccccc2)c1-c1ccnc(Nc2ccc(F)cc2F)n1` [IIA-56], the figure is under 100 nM; as for `Cc1onc(-c2ccc3c(c2)OCO3)c1-c1ccnc(Nc2ccccc2)n1` [IIA-115], 100 to 1000 nM.
On the same count and under the same terms, for `CC(=O)Nc1nccc(-c2c(-c3ccccc3)noc2C)n1` [XA-1] the value was 100 to 1000 nM.
As for `Cc1onc(-c2ccccc2Cl)c1-c1ccnc(Nc2ccccc2)n1` [IIA-76], the Ki is 100 to 1000 nM.
Turning to `COc1ccc(Cl)c(Nc2nccc(-c3c(-c4ccccc4)noc3C)n2)c1` [IIA-71], the “Activity in the JNK3 Inhibition Assay (Ki rating)” value is recorded as “A/B”.
In the case of `CCCC(=O)Nc1nccc(-c2c(-c3ccccc3)noc2C)n1` [XA-5], the Ki was 100 to 1000 nM.
For `Cc1onc(-c2ccccc2)c1-c1ccnc(Nc2ccccc2)c1` [IIA-52, [4-(5-Methyl-3-phenyl-isoxazol-4-yl)-pyridin-2-yl]phenyl-amine], the Ki was under 100 nM.
For `COc1cccc(C(=O)Nc2nccc(-c3c(-c4c(F)cccc4F)noc3C)n2)c1` [IIIA-65], the Ki was in the range of 100 to 1000 nM.
With `CC(=O)c1ccc(Nc2nccc(-c3c(-c4ccccc4)noc3C)n2)cc1` [IIA-35], the inhibitory constant (Ki) was under 100 nM.
On the same count and under the same terms, as for `Cc1onc(-c2cccc(F)c2)c1-c1ccnc(NC(=O)c2ccc(F)cc2)n1` [IIIA-49], the figure is 100 to 1000 nM; as for `Cc1onc(-c2ccccc2)c1-c1ccnc(Nc2cccc(CCC(=O)N[C@@H](C(=O)OC(C)(C)C)C(C)C)c2)c1` [IIA-135], 100 to 1000 nM.
Still for that read-out and setting: as for `COc1cc(OC)cc(C(=O)Nc2nccc(-c3c(-c4cccc(C#N)c4)noc3C)n2)c1` [IIIA-41], the figure is over 1000 nM; as for `COCc1ccc2ccccc2c1Nc1nccc(-c2c(-c3ccccc3)noc2C)n1` [IIAA-18], 100 to 1000 nM.
As for `COc1ccc(C(=O)Nc2nccc(-c3c(-c4c(F)cccc4F)noc3C)n2)cc1` [IIIA-68], the inhibition constant Ki was 100 to 1000 nM.
Consider `COc1cc(OC)cc(C(=O)Nc2nccc(-c3c(-c4cccc(F)c4)noc3C)n2)c1` [IIIA-47], for which the inhibition constant Ki is 100 to 1000 nM.
Turning to `Cc1onc(-c2ccccc2)c1-c1ccnc(Nc2cccc(F)c2C)n1` [IIA-70], the “Activity in the JNK3 Inhibition Assay (Ki rating)” value is on record as “A/B”.
